Tests used:
[1] = test system: rat model of acute lung injury; test: Rat model of LPS-induced acute lung injury; format: in vivo, Wistar rats; set-up: IL-6 (serum) / IL-6 (homogenate of lung tissue) / IL-6 (bronchoalveolar lavage fluid) / TNF-α (serum) / TNF-α (homogenate of lung tissue) / TNF-α (bronchoalveolar lavage fluid): unit not given here; conditions: ELISA; for expression levels of IL-6 and TNF-α (in words): rat model of acute lung injury; for IL-6 (bronchoalveolar lavage fluid) / IL-6 (homogenate of lung tissue) / IL-6 (serum) / TNF-α (bronchoalveolar lavage fluid) / TNF-α (homogenate of lung tissue) / TNF-α (serum): test drug 30 mg/kg i.p. 2 h before and 1 h after LPS, 12 h after modeling
Procedure: 1. Experimental aminals: SPF-grade male Wistar rats, weighed 180-220 g, 6-8 weeks old.
3. Establishment of animal model: The rats were adaptively fed for one week. After the animals were anesthetized, 3 mg/kg LPS (B8) was injected intratracheally to prepare the rat model of acute lung injury.
4. […] At 2 hours before modeling (before tracheal injection of LPS), the test drug (30 mg/kg, the vehicle was 0.3% DMSO in saline) was intraperitoneally injected. At 1 hour after modeling, the test drug was administered once again (at the same dose). At 12 hours after modeling, the animals were sacrificed, and the samples were collected for the tests of various indexes. […]
5.2 ELISA method: 5 rats per group. The serum, alveolar lavage fluid, and tissue homogenate of one lung of each of the rats were subjected to ELISA assay to determine the TNF-α and IL-6 levels.

[2] = test system: rat model of diabetic retinopathy; test: Rat model of diabetic retinopathy (STZ); format: in vivo, Wistar rats; conditions: for retinal leukocyte stasis, Leukocyte count: Concanavalin A/FITC, 14 days after intravitreal injection, compounds 0.25%, dexamethasone 0.1%; for number of leukocyte stasis in the retina (fluorescent staining, FIG. 8; in words) / retinal vascular penetration in rats (fluorescent staining, FIG. 6; in words): intraocular injection, versus model group
Procedure: 3.1 Laboratory animals: SPF-grade male Wistar rats, weighed 180-220 g.
3.3 Animal modeling and grouping: After one week of adaptive feeding, 134 male Wistar rats (weighed 220-260 g) were administered 65 mg/kg of STZ by one-time intraperitoneal injection to prepare a rat model of type I diabetic. The rats were fasting but water was allowable overnight for 15 h. The formulated STZ solution was intraperitoneally injected according to body weight. After 1 h, the diet was resumed and blood glucose was measured at 72 h. The successfully modeled diabetic rats (120 rats) were selected for continued feeding, and randomly divided into the following 6 groups according to blood glucose (20 rats per group), plus a group of normal rats with no STZ injected as a negative control group.
3.4 Administration: The rats continued to be fed until blood glucose was measured once before administration. After blood glucose reached the standard, drugs were intravitreally injected, and indexs were subsequently tested after 14 days. Blood glucose was measured once before sampling.
3.5 Evans blue staining method (7 groups, 6 rats per group): Evans blue was intravenously injected. 2 hours later, normal saline was perfused into the left ventricle. The retina was taken to compare between the stained area and the unstained area to detect retinal vascular permeability.
3.6 Retinal leukocyte stasis detection method (7 groups, 6 rats per group): PBS was perfused into the left ventricle for 1 min to remove red blood cells and other substances. Concanavalin A (FITC (Sigma, C7642) was perfused (20 μg/ml in PBS, 5 mg/kg) to mark adherent leukocytes. 4% PFA was perfused for 4 min for fixation. 1% Albumin (Sigma, A6414) (in PBS) was perfused for 1 min, and then PBS was perfused for 2 min. The retina was taken for retinal wholemount. Thereafter, the stasis of leukocytes on the vascular endothelium was observed under a fluorescence microscope. […]

human B1R = biological target: T1, human B1R (Homo sapiens, UniProt P46663); test: FLIPR calcium ion flux assay, inhibitory activity against human B1R; format: cell-based; conditions: HEK293 cells stably expressing human B1R; agonist [Lys-des-Arg9]-Bradykinin 4.6 nM (EC80); FLIPR method
T1 construct: host or cells: HEK293
T1 sequence (P46663 1-353): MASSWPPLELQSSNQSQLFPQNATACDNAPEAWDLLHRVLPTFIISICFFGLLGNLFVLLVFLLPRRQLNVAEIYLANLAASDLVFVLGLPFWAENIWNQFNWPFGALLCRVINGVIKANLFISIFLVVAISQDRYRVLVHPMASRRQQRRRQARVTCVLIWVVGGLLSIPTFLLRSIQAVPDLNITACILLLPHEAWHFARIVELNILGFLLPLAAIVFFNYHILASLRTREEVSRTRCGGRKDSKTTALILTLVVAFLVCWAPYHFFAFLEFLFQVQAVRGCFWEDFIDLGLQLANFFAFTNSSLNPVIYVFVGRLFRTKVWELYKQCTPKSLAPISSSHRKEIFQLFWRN
In short: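 HEK293 cells stably expressing human B1R, loaded with Fluo-4 Direct plus probenecid; compounds 9-point 1:5 series from 30 μM, duplicate, preincubated 10 min. Stimulation with [Lys-des-Arg9]-bradykinin at 4.6 nM final (EC80); peak fluorescence at 538 nm gave IC50.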

For `CCOc1ccc(-c2c(F)cc(NC(=O)N3CCC(C(C)(C)C)CC3)cc2-c2nn[nH]n2)cn1` [Compound 8, 4-(tert-butyl)-N-(4-(6-ethoxypyrid-3-yl)-3-fluoro-5-(2H-tetrazol-5-yl)phenyl)piperidine-1-carboxamide], the “expression levels of IL-6 and TNF-α (in words)” value [1] was “effectively reduce”, the “IL-6 (bronchoalveolar lavage fluid)” value [1] was 171.55 ± 81.93 and the “IL-6 (homogenate of lung tissue)” value [1] was 250.10 ± 70.26. The “IL-6 (serum)” value [1] was 470.76 ± 151.60, the “TNF-α (bronchoalveolar lavage fluid)” value [1] was 26.72 ± 10.35 and the “TNF-α (homogenate of lung tissue)” value [1] was 35.74 ± 11.82. For the same molecule, the “TNF-α (serum)” value [1] was 94.89 ± 28.07, the “retinal leukocyte stasis, Leukocyte count” value [2] was 5.32 ± 1.38 and the “number of leukocyte stasis in the retina (fluorescent staining, FIG. 8; in words)” value [2] was “significantly reduced”. For the same molecule, the “retinal vascular penetration in rats (fluorescent staining, FIG. 6; in words)” value [2] was “significantly reduced” and the IC50 (human B1R) was 14.9 nM.

With `CCOc1ccc(-c2ccc(NC(=O)N[C@H]3CC[C@H](C)CC3)cc2-c2nn[nH]n2)cn1` [Compound 71, 1-(4-(6-ethoxypyrid-3-yl)-3-(2H-tetrazol-5-yl)phenyl)-3-((trans)-4-methylcyclohexyl)urea] the “expression levels of IL-6 and TNF-α (in words)” value [1] was “effectively reduce”, the “IL-6 (bronchoalveolar lavage fluid)” value [1] was 184.29 ± 75.57 and the “IL-6 (homogenate of lung tissue)” value [1] was 236.26 ± 84.91. For the same molecule, the “IL-6 (serum)” value [1] was 473.14 ± 134.88, the “TNF-α (bronchoalveolar lavage fluid)” value [1] was 25.73 ± 11.35 and the “TNF-α (homogenate of lung tissue)” value [1] was 37.03 ± 10.88. For the same molecule, the “TNF-α (serum)” value [1] was 101.63 ± 37.40, the “retinal leukocyte stasis, Leukocyte count” value [2] was 5.22 ± 1.13 and the “number of leukocyte stasis in the retina (fluorescent staining, FIG. 8; in words)” value [2] was “significantly reduced”. The “retinal vascular penetration in rats (fluorescent staining, FIG. 6; in words)” value [2] was “significantly reduced” and the IC50 (human B1R) was 66.1 nM.

Source: patent US20250353835A1, “N-TETRAZOLYL ARYL UREA-BASED DERIVATIVES, PREPARATION METHOD THEREFOR, AND USE THEREOF” (Hangzhou Yirui Pharmaceutical Technology Co., Ltd, priority 2022, published 2025)
